Assay results as given in patent US12600709B2, “Nonpeptide somatostatin type 5 receptor agonists and uses thereof” (Crinetics Pharmaceuticals, Inc., priority 2019, dated 2026).
Where two headings read alike, the source gives them in different places. Each block holds one molecule with its values, some of them ahead of it.

Legend:
[1] = molecular target: T1, human somatostatin receptor subtype 5 (Homo sapiens, UniProt P35346); assay: cAMP assay for SST5R (inhibition of cAMP in CHO-K1 cells); type: cell-based; conditions: for EC50: inhibition of cAMP via human SST5 receptor, read-out: SST5 potency; for Fold selectivity for SST5 vs SST2: class symbols, SST5 receptor over SST2 receptor
T1 construct: expressed in transfected cells
In short: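 CHO-K1 cells stably expressing human SSTR5 were treated 20 min at 37 °C with compounds plus 1.6 μM NKH477 in HBSS, 0.5 mM HEPES pH 7.4, 0.1% BSA, 0.2 mM IBMX. Lysate cAMP measured by HTRF against a standard curve; EC50 from cAMP-versus-concentration plots.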

[2] = molecular target: T2, human somatostatin receptor subtype 2 (Homo sapiens, UniProt P30874); assay: cAMP assay for SST2R (inhibition of cAMP in CHO-K1 cells); type: cell-based; conditions: Table B; inhibition of cAMP via human SST2 receptor; read-out: SST2 potency
T2 construct: expressed in transfected cells
In short: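 CHO-K1 cells stably expressing human SSTR2, plated 4 days prior, treated 20 min at 37° C with 1.6 μM NKH477 plus compound dilutions in HBSS/HEPES pH 7.4/0.1% BSA/0.2 mM IBMX. Lysate cAMP measured by HTRF against standard curve; EC50 from concentration-response.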

T1 sequence (P35346 whole entry): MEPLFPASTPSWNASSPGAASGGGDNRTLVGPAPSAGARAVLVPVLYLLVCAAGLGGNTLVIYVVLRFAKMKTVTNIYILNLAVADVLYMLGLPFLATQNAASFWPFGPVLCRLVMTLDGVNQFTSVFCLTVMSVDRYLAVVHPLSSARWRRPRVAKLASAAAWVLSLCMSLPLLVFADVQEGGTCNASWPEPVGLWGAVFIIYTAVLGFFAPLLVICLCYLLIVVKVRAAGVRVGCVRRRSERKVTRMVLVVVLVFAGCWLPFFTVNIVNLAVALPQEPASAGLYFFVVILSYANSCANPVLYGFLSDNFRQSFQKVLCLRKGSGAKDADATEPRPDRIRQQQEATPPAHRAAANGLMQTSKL
T2 sequence (P30874 whole entry): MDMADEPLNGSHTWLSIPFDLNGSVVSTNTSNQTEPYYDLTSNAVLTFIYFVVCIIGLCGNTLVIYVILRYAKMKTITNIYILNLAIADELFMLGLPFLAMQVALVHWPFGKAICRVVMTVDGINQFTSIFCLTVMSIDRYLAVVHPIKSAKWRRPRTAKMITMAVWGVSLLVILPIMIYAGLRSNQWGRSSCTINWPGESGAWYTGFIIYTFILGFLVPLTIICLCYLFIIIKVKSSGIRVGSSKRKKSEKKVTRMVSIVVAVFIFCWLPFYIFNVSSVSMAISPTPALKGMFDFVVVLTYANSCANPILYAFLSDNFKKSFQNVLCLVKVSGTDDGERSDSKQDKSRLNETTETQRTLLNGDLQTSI

EC50 ([1]; Table A): < 10 nM
Fold selectivity for SST5 vs SST2 ([1]; Table B): +++ (+++=>500)
EC50 ([1]; Table B): < 10 nM
EC50 [2]: > 1000 nM
Structure (SMILES): Cc1ncc(C(=O)NC2CCC(F)(F)CC2)c(N2CC[C@H](N)C2)c1-c1cc(F)cc(F)c1 [1-233, 4-[(3S)-3-aminopyrrolidin-1-yl]-N-(4,4-difluorocyclohexyl)-5-(3,5-difluorophenyl)-6-methylpyridine-3-carboxamide]

EC50 ([1]; Table A): < 10 nM
Fold selectivity for SST5 vs SST2 ([1]; Table B): +++ (+++=>500)
EC50 ([1]; Table B): < 10 nM
EC50 [2]: > 1000 nM
Structure (SMILES): COc1cc(-c2c(C)ncc(C(=O)NC3CCCC3)c2N2CC[C@](C)(N)C2)ccn1 [1-256, 4-[(3S)-3-amino-3-methylpyrrolidin-1-yl]-N-cyclopentyl-2′-methoxy-2-methyl-[3,4′-bipyridine]-5-carboxamide]

EC50 ([1]; Table A): < 10 nM
Fold selectivity for SST5 vs SST2 ([1]; Table B): +++ (+++=>500)
EC50 ([1]; Table B): < 10 nM
EC50 [2]: > 1000 nM
Structure (SMILES): COc1cc(-c2c(C#N)ncc(C(=O)NCC(C)C)c2N2CC[C@](C)(N)C2)ccn1 [1-270, 4-[(3S)-3-amino-3-methylpyrrolidin-1-yl]-2-cyano-2′-methoxy-N-(2-methylpropyl)-[3,4′-bipyridine]-5-carboxamide]

EC50 ([1]; Table A): < 10 nM
Fold selectivity for SST5 vs SST2 ([1]; Table B): +++ (+++=>500)
EC50 ([1]; Table B): < 10 nM
EC50 [2]: > 1000 nM
Structure (SMILES): N[C@H]1CCN(c2c(C(=O)NC3CCC(F)(F)CC3)cnc(C(F)(F)F)c2-c2cc(F)cc(F)c2)C1 [1-214, 4-[(3S)-3-aminopyrrolidin-1-yl]-N-(4,4-difluorocyclohexyl)-5-(3,5-difluorophenyl)-6-(trifluoromethyl)pyridine-3-carboxamide]

EC50 ([1]; Table A): < 10 nM
Fold selectivity for SST5 vs SST2 ([1]; Table B): + (+=10 to 99)
EC50 ([1]; Table B): < 10 nM
EC50 [2]: 10 to 100 nM
Structure (SMILES): Cc1cccc2[nH]c(-c3cncc(C(=O)N(C)[C@@H](C)C4CC4)c3N3CC[C@](C)(N)C3)nc12 [2-29, 4-[(3S)-3-amino-3-methylpyrrolidin-1-yl]-N-[(1S)-1-cyclopropylethyl]-N-methyl-5-(4-methyl-1H-1,3-benzodiazol-2-yl)pyridine-3-carboxamide]

EC50 ([1]; Table A): < 10 nM
Fold selectivity for SST5 vs SST2 ([1]; Table B): + (+=10 to 99)
EC50 ([1]; Table B): < 10 nM
EC50 [2]: 100 to 1000 nM
Structure (SMILES): Cc1cccc2[nH]c(-c3cncc(C(=O)N4CCC[C@H]4C(F)(F)F)c3N3CC[C@](C)(N)C3)nc12 [2-41, (3S)-3-methyl-1-[3-(4-methyl-1H-1,3-benzodiazol-2-yl)-5-[(2S)-2-(trifluoromethyl)pyrrolidine-1-carbonyl]pyridin-4-yl]pyrrolidin-3-amine]

EC50 ([1]; Table A): < 10 nM
Fold selectivity for SST5 vs SST2 ([1]; Table B): +++ (+++=>500)
EC50 ([1]; Table B): < 10 nM
EC50 [2]: 100 to 1000 nM
Structure (SMILES): COc1cc(C#N)cc(-c2c(C)ncc(C(=O)NC3CC(F)(F)C3)c2N2CC[C@](C)(N)C2)c1 [1-269, 4-[(3S)-3-amino-3-methylpyrrolidin-1-yl]-5-(3-cyano-5-methoxyphenyl)-N-(3,3-difluorocyclobutyl)-6-methylpyridine-3-carboxamide]

EC50 ([1]; Table A): < 10 nM
Fold selectivity for SST5 vs SST2 ([1]; Table B): +++ (+++=>500)
EC50 ([1]; Table B): < 10 nM
EC50 [2]: 100 to 1000 nM
Structure (SMILES): COc1ncc(C(=O)N[C@@H](C)C(F)(F)F)c(N2CC[C@H](N)C2)c1-c1cc(F)cc(Cl)c1 [1-283, 4-[(3S)-3-aminopyrrolidin-1-yl]-5-(3-chloro-5-fluorophenyl)-6-methoxy-N-[(2S)-1,1,1-trifluoropropan-2-yl]pyridine-3-carboxamide]

EC50 ([1]; Table A): < 10 nM
Fold selectivity for SST5 vs SST2 ([1]; Table B): +++ (+++=>500)
EC50 ([1]; Table B): < 10 nM
EC50 [2]: > 1000 nM
Structure (SMILES): C[C@H](NC(=O)c1ncc(Cl)c(-c2cc(F)cc(F)c2)c1N1CC[C@](C)(N)C1)C1CC1 [4-1, 3-[(3S)-3-amino-3-methylpyrrolidin-1-yl]-5-chloro-N-[(1S)-1-cyclopropylethyl]-4-(3,5-difluorophenyl)pyridine-2-carboxamide]

EC50 ([1]; Table A): < 10 nM
Fold selectivity for SST5 vs SST2 ([1]; Table B): +++ (+++=>500)
EC50 ([1]; Table B): < 10 nM
EC50 [2]: 100 to 1000 nM
Structure (SMILES): COc1ncc(C(=O)NC2CCC(F)(F)CC2)c(N2CC[C@H](N)C2)c1-c1cc(F)cc(Cl)c1 [1-284, 4-[(3S)-3-aminopyrrolidin-1-yl]-5-(3-chloro-5-fluorophenyl)-N-(4,4-difluorocyclohexyl)-6-methoxypyridine-3-carboxamide]

EC50 ([1]; Table A): < 10 nM
Fold selectivity for SST5 vs SST2 ([1]; Table B): +++ (+++=>500)
EC50 ([1]; Table B): < 10 nM
EC50 [2]: > 1000 nM
Structure (SMILES): C[C@]1(N)CCN(c2c(C(=O)NC3CCCC3)cnc(C#N)c2-c2ccnc(C(F)(F)F)c2)C1 [1-248, 4-[(3S)-3-amino-3-methylpyrrolidin-1-yl]-2-cyano-N-cyclopentyl-2′-(trifluoromethyl)-[3,4′-bipyridine]-5-carboxamide]

The next lines start with the molecule.

Structure (SMILES): C[C@]1(N)CCN(c2c(C(=O)NC3CCCCC3)cnc(C#N)c2-c2cc(F)cc(F)c2)C1 [1-93, 4-[(3S)-3-amino-3-methylpyrrolidin-1-yl]-6-cyano-N-cyclohexyl-5-(3,5-difluorophenyl)pyridine-3-carboxamide]
EC50 ([1]; Table A): < 10 nM
Fold selectivity for SST5 vs SST2 ([1]; Table B): +++ (+++=>500)
EC50 ([1]; Table B): < 10 nM
EC50 [2]: 10 to 100 nM

Structure (SMILES): COC[C@@]1(N)CCN(c2c(C(=O)N[C@@H](C)C3CC3)cnc(C#N)c2-c2cc(F)cc(F)c2)C1 [1-116, 4-[(3R)-3-amino-3-(methoxymethyl)pyrrolidin-1-yl]-6-cyano-N-[(1S)-1-cyclopropylethyl]-5-(3,5-difluorophenyl)pyridine-3-carboxamide]
EC50 ([1]; Table A): < 10 nM
Fold selectivity for SST5 vs SST2 ([1]; Table B): +++ (+++=>500)
EC50 ([1]; Table B): < 10 nM
EC50 [2]: > 1000 nM

Structure (SMILES): C[C@]1(N)CCN(c2c(C(=O)NC3CCC(F)(F)CC3)cncc2-c2cccc(C#N)c2)C1 [1-10, 4-[(3S)-3-amino-3-methylpyrrolidin-1-yl]-5-(3-cyanophenyl)-N-(4,4-difluorocyclohexyl)pyridine-3-carboxamide]
EC50 ([1]; Table A): 10 to 100 nM
Fold selectivity for SST5 vs SST2 ([1]; Table B): ++ (++=100 to 499)
EC50 ([1]; Table B): 10 to 100 nM
EC50 [2]: > 1000 nM

Structure (SMILES): Cn1nccc1CNC(=O)c1cnc(C#N)c(-c2cc(F)cc(F)c2)c1N1CC[C@](C)(N)C1 [1-104, 4-[(3S)-3-amino-3-methylpyrrolidin-1-yl]-6-cyano-5-(3,5-difluorophenyl)-N-[(1-methyl-1H-pyrazol-5-yl)methyl]pyridine-3-carboxamide]
EC50 ([1]; Table A): < 10 nM
Fold selectivity for SST5 vs SST2 ([1]; Table B): +++ (+++=>500)
EC50 ([1]; Table B): < 10 nM
EC50 [2]: > 1000 nM

Structure (SMILES): COc1ncc(C(=O)N[C@@H](C)C(F)(F)F)c(N2CC[C@](C)(N)C2)c1-c1c(C)noc1C [1-187, 4-[(3S)-3-amino-3-methylpyrrolidin-1-yl]-5-(3,5-dimethyl-1,2-oxazol-4-yl)-6-methoxy-N-[(2S)-1,1,1-trifluoropropan-2-yl]pyridine-3-carboxamide]
EC50 ([1]; Table A): < 10 nM
Fold selectivity for SST5 vs SST2 ([1]; Table B): +++ (+++=>500)
EC50 ([1]; Table B): < 10 nM
EC50 [2]: > 1000 nM

Structure (SMILES): CCC(CC)NC(=O)c1cncc(-c2cc(F)cc(F)c2)c1N1CC[C@](C)(N)C1 [1-31, 4-[(3S)-3-amino-3-methylpyrrolidin-1-yl]-5-(3,5-difluorophenyl)-N-(pentan-3-yl)pyridine-3-carboxamide]
EC50 ([1]; Table A): < 10 nM
Fold selectivity for SST5 vs SST2 ([1]; Table B): ++ (++=100 to 499)
EC50 ([1]; Table B): < 10 nM
EC50 [2]: 100 to 1000 nM

Structure (SMILES): C[C@]1(N)CCN(c2c(C(=O)NCC3(F)CCC3)cncc2-c2cc(F)cc(F)c2)C1 [1-47, 4-[(3S)-3-amino-3-methylpyrrolidin-1-yl]-5-(3,5-difluorophenyl)-N-[(1-fluorocyclobutyl)methyl]pyridine-3-carboxamide]
EC50 ([1]; Table A): < 10 nM
Fold selectivity for SST5 vs SST2 ([1]; Table B): +++ (+++=>500)
EC50 ([1]; Table B): < 10 nM
EC50 [2]: 100 to 1000 nM

Structure (SMILES): CC(NC(=O)c1cnc(C#N)c(-c2cc(F)cc(F)c2)c1N1CC[C@](C)(N)C1)c1ccon1 (stereo partly drawn) [1-132, 4-[(3S)-3-amino-3-methylpyrrolidin-1-yl]-6-cyano-5-(3,5-difluorophenyl)-N-[1-(1,2-oxazol-3-yl)ethyl]pyridine-3-carboxamide]
EC50 ([1]; Table A): < 10 nM
Fold selectivity for SST5 vs SST2 ([1]; Table B): +++ (+++=>500)
EC50 ([1]; Table B): < 10 nM
EC50 [2]: > 1000 nM

Structure (SMILES): C[C@]1(N)CCN(c2c(C(=O)NC(C3CC3)C3CC3)cncc2-c2cc(F)cc(F)c2)C1 [1-51, 4-[(3S)-3-amino-3-methylpyrrolidin-1-yl]-N-(dicyclopropylmethyl)-5-(3,5-difluorophenyl)pyridine-3-carboxamide]
EC50 ([1]; Table A): < 10 nM
Fold selectivity for SST5 vs SST2 ([1]; Table B): +++ (+++=>500)
EC50 ([1]; Table B): < 10 nM
EC50 [2]: 100 to 1000 nM

Structure (SMILES): Cc1ncc(C(=O)N[C@@H](C)C2CC2)c(N2CC[C@](C)(N)C2)c1-c1cc(F)cc(OC(F)F)c1 [1-173, 4-[(3S)-3-amino-3-methylpyrrolidin-1-yl]-N-[(1S)-1-cyclopropylethyl]-5-[3-(difluoromethoxy)-5-fluorophenyl]-6-methylpyridine-3-carboxamide]
EC50 ([1]; Table A): < 10 nM
Fold selectivity for SST5 vs SST2 ([1]; Table B): ++ (++=100 to 499)
EC50 ([1]; Table B): < 10 nM
EC50 [2]: 100 to 1000 nM

Structure (SMILES): COc1cc(C#N)cc(-c2cncc(C(=O)NC34CC(C3)C4)c2N2CC[C@](C)(N)C2)c1 [1-94, 4-[(3S)-3-amino-3-methylpyrrolidin-1-yl]-N-{bicyclo[1.1.1]pentan-1-yl}-5-(3-cyano-5-methoxyphenyl)pyridine-3-carboxamide]
EC50 ([1]; Table A): < 10 nM
Fold selectivity for SST5 vs SST2 ([1]; Table B): ++ (++=100 to 499)
EC50 ([1]; Table B): < 10 nM
EC50 [2]: 100 to 1000 nM

Structure (SMILES): COc1ncc(C(=O)N[C@@H](C)C2CC2)c(N2CC[C@](C)(N)C2)c1-c1cccc(OC(F)F)c1 [1-165, 4-[(3S)-3-amino-3-methylpyrrolidin-1-yl]-N-[(1S)-1-cyclopropylethyl]-5-[3-(difluoromethoxy)phenyl]-6-methoxypyridine-3-carboxamide]
EC50 ([1]; Table A): < 10 nM
Fold selectivity for SST5 vs SST2 ([1]; Table B): +++ (+++=>500)
EC50 ([1]; Table B): < 10 nM
EC50 [2]: 100 to 1000 nM
